Patent US9346809B2 (LEO PHARMA A/S, priority 2009, dated 2016)
Like-named read-outs stand apart in the source and are kept apart here.

Experiments:
Format in all cases: biochemical
[1] = target: T1, JAK1 (aa 850-1154, catalytic domain, GST-tag) (Homo sapiens, UniProt P23458); experiment: JAK kinase assay (HTRF, phosphorylation of TK substrate-biotin), JAK1; conditions: ATP at Km (7 μM)
T1 construct: JAK1 (aa 850-1154) and TYK2 (aa 871-1187) are expressed with an N-terminally fused GST-tag; GST (N); purchased Carna Biosciences, Inc; host or cells: baculovirus expression system
Procedure: (§1) Human baculovirus-expressed JAK1, 2, 3 and TYK2 were purchased from Carna Biosciences, Inc. All four purified enzymes contain only the catalytic domain. JAK1 (aa 850-1154) and TYK2 (aa 871-1187) are expressed with an N-terminally fused GST-tag, and JAK2 and JAK3 with an N-terminally fused His-tag.
(§2) Inhibition of phosphorylation of a synthetic peptide was measured in an HTRF-based assay using the TK substrate-Biotin from the Cisbio HTRFKinEASE TK kit. First, 2 μl of TK solution (TK substrate-biotin in kinase buffer [1× enzymatic buffer from HTRFKinEASE TK kit, 1 mM DTT]) is added to a plate containing 1 μl prediluted compound (final assay concentration DMSO: 0.75%). Then, 5 μl kinase-ATP mix (prepared in kinase buffer) is added to the wells and the plates are incubated at RT for 20-30 min. For all four kinases a concentration of ATP that corresponded to the Km for ATP was used. The final concentrations of buffers, substrate, kinase and ATP were: JAK1: 50 mM Hepes buffer pH 7.0, 0.01% BSA, 10 mM MgCl2, 1 mM DTT, 7 μM ATP, 50 nM SEB, 1 μM TK Substrate-Biotin and 5 ng JAK1; JAK2: 50 mM Hepes buffer pH 7.0, 0.01% BSA, 5 mM MgCl2, 1 mM DTT, 4 μM ATP, 1 μM TK Substrate-Biotin and 0.1 ng JAK2; JAK3: 50 mM Hepes buffer pH 7.0, 0.01% BSA, 5 mM MgCl2, 1 mM DTT, 2 μM ATP, 1 μM TK Substrate-Biotin and 0.3 ng JAK3; TYK2: 50 mM Hepes buffer pH 7.0, 0.01% BSA, 5 mM MgCl2, 1 mM DTT, 13 μM ATP, 50 nM SEB, 1 μM TK Substrate-Biotin and 0.8 ng TYK2. Thereafter, the kinase reaction is stopped by adding 4 μl detection mix (final concentrations: 50 mM Hepes buffer pH 7.0, 0.01% BSA, 0.8 M KF, 20 mM EDTA, 42 nM Streptavidin-XL665 and 1:400 STK Ab Cryptate) and the plates are incubated overnight in the dark. The HTRF signal is read using an Envision plate reader.
(§3) In Table 1 selected JAK kinase inhibitory activities are listed with the following indicators: I: EC50<100 nM, II: 100 nM≦EC50≦500 nM and III: EC50>500 nM

[2] = target: T2, JAK2 (catalytic domain, His-tag) (Homo sapiens, UniProt O60674); experiment: JAK kinase assay (HTRF, phosphorylation of TK substrate-biotin), JAK2; conditions: ATP at Km (4 μM)
T2 construct: All four purified enzymes contain only the catalytic domain; His (N); purchased Carna Biosciences, Inc; host or cells: baculovirus expression system
Procedure: as §1, §2, §3

[3] = target: T3, JAK3 (catalytic domain, His-tag) (Homo sapiens, UniProt P52333); experiment: JAK kinase assay (HTRF, phosphorylation of TK substrate-biotin), JAK3; conditions: ATP at Km (2 μM)
T3 construct: All four purified enzymes contain only the catalytic domain; His (N); purchased Carna Biosciences, Inc; host or cells: baculovirus expression system
Procedure: as §1, §2, §3

[4] = target: T4, TYK2 (aa 871-1187, catalytic domain, GST-tag) (Homo sapiens, UniProt P29597); experiment: JAK kinase assay (HTRF, phosphorylation of TK substrate-biotin), TYK2; conditions: ATP at Km (13 μM)
T4 construct: JAK1 (aa 850-1154) and TYK2 (aa 871-1187) are expressed with an N-terminally fused GST-tag; GST (N); purchased Carna Biosciences, Inc; host or cells: baculovirus expression system
T4 sequence (P29597 871-1187): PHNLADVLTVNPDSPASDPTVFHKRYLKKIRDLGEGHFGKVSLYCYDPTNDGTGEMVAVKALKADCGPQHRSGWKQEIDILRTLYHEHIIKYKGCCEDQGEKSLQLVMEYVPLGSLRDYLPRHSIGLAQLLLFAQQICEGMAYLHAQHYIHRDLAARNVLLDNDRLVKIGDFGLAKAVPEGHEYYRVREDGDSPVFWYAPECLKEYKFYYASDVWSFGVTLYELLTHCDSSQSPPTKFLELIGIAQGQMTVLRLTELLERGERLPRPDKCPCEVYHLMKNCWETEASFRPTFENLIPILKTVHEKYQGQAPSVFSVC
Procedure: as §1, §2, §3

[5] = HTRF assay, read-out: JAK1 kinase inhibitory activity (EC50 indicator)
[6] = HTRF assay, read-out: JAK2 kinase inhibitory activity (EC50 indicator)
[7] = HTRF assay, read-out: JAK3 kinase inhibitory activity (EC50 indicator)
[8] = HTRF assay, read-out: TYK2 kinase inhibitory activity (EC50 indicator)
[9] = read-out: JAK1 kinase inhibitory activity (EC50 indicator)
[10] = read-out: JAK2 kinase inhibitory activity (EC50 indicator)
[11] = read-out: JAK3 kinase inhibitory activity (EC50 indicator)
[12] = read-out: TYK2 kinase inhibitory activity (EC50 indicator)
[13] = HTRF assay, read-out: JAK1 kinase inhibitory activity (EC50)
[14] = HTRF assay, read-out: JAK2 kinase inhibitory activity (EC50)
[15] = HTRF assay, read-out: JAK3 kinase inhibitory activity (EC50)
[16] = HTRF assay, read-out: TYK2 kinase inhibitory activity (EC50)

T2 sequence (O60674 849-1124 limits assumed): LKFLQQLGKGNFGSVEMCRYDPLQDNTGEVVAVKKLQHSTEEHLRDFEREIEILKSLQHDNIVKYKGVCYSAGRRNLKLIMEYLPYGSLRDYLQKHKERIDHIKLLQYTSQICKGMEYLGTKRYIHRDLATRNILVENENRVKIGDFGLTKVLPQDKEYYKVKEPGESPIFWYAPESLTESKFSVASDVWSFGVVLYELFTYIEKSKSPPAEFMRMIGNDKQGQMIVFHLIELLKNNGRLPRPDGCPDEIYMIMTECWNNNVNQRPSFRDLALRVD
T3 sequence (P52333 822-1111 limits assumed): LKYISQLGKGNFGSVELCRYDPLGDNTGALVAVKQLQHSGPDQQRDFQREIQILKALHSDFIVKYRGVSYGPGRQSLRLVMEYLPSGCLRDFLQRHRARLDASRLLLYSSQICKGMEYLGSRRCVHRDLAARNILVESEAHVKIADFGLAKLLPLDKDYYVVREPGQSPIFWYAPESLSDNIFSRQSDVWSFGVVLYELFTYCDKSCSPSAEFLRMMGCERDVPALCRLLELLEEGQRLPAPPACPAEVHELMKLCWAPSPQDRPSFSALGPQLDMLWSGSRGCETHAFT
T1 sequence (P23458 850-1154): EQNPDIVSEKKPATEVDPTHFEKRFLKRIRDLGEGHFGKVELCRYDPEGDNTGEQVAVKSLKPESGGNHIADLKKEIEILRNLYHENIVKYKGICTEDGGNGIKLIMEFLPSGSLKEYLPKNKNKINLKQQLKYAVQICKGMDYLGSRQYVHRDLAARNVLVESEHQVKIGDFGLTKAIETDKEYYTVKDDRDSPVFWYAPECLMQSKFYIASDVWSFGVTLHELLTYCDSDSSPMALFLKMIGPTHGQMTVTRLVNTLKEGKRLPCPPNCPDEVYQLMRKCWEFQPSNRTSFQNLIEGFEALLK

EC50 [1, 5]	EC50 [2, 6]	EC50 [3, 7]	EC50 [4, 8]	EC50 [1, 9]	EC50 [2, 10]	EC50 [3, 11]	EC50 [4, 12]	Structure (SMILES)	other results
< 100 nM	< 100 nM	> 500 nM	> 500 nM					O=C(c1ccc(S(=O)(=O)C2CCCC2)cc1)N1CCN(c2ncnc3[nH]ccc23)CC12CC2 [Example 407, (4-Cyclopentanesulfonyl-phenyl)-[7-(7H-pyrrolo[2,3-d]pyrimidin-4-yl)-4,7-diaza-spiro[2.5]oct-4-yl]-methanone]	
				> 500 nM	> 500 nM	> 500 nM	> 500 nM	COC(=O)c1cc2c(N3CCN(C(=O)Cc4ccc(C#N)cc4)C4(CC4)C3)ncnc2[nH]1 [Example 124, 4-{4-[2-(4-Cyano-phenyl)-acetyl]-4,7-diaza-spiro[2.5]oct-7-yl}-7H-pyrrolo[2,3-d]pyrimidine-6-carboxylic acid methyl ester]	
								NS(=O)(=O)c1ccc(NCCC(=O)N2CCN(c3ncnc4[nH]ccc34)CC23CC3)cc1 [Example 453, 4-{3-Oxo-3-[7-(7H-pyrrolo[2,3-d]pyrimidin-4-yl)-4,7-diaza-spiro[2.5]oct-4-yl]-propylamino}-benzenesulfonamide]	EC50 [1, 13]: < 100 nM; EC50 [2, 14]: < 100 nM; EC50 [3, 15]: 100 to 500 nM; EC50 [4, 16]: > 500 nM
				< 100 nM	100 to 500 nM	100 to 500 nM	> 500 nM	N#Cc1ccc(CS(=O)(=O)N2[C@@H]3CC[C@H]2CN(c2ncnc4[nH]ccc24)C3)cc1 [Example 78, 4-[3-(7H-Pyrrolo[2,3-d]pyrimidin-4-yl)-3,8-diaza-bicyclo[3.2.1]octane-8-sulfonylmethyl]-benzonitrile]	
				< 100 nM	< 100 nM	< 100 nM	< 100 nM	NS(=O)(=O)c1ccc2[nH]c(C(=O)N3CCN(c4ncnc5[nH]ccc45)CC34CC4)cc2c1 [Example 186, 2-[7-(7H-Pyrrolo[2,3-d]pyrimidin-4-yl)-4,7-diaza-spiro[2.5]octane-4-carbonyl]-1H-indole-5-sulfonic acid amide]	
				< 100 nM	< 100 nM	100 to 500 nM	> 500 nM	O=C(CC1CCCC1)N1[C@@H]2CC[C@H]1CN(c1ncnc3[nH]ccc13)C2 [Example 38, 2-Cyclopentyl-1-[3-(7H-pyrrolo[2,3-d]pyrimidin-4-yl)-3,8-diazabicyclo[3.2.1]oct-8-yl]ethanone]	
								NS(=O)(=O)c1cnn(CCC(=O)N2CCN(c3ncnc4[nH]ccc34)CC23CC3)c1 [Example 435, 1-{3-Oxo-3-[7-(7H-pyrrolo[2,3-d]pyrimidin-4-yl)-4,7-diaza-spiro[2.5]oct-4-yl]-propyl}-1H-pyrazole-4-sulfonic acid amide]	EC50 [1, 13]: < 100 nM; EC50 [2, 14]: < 100 nM; EC50 [3, 15]: < 100 nM; EC50 [4, 16]: 100 to 500 nM
								O=C(Oc1ccc(Cl)cc1)N1CCN(c2ncnc3[nH]ccc23)CC12CC2 [Example 446, 7-(7H-Pyrrolo[2,3-d]pyrimidin-4-yl)-4,7-diaza-spiro[2.5]octane-4-carboxylic acid 4-chloro-phenyl ester]	EC50 [1, 13]: < 100 nM; EC50 [2, 14]: < 100 nM; EC50 [3, 15]: 100 to 500 nM; EC50 [4, 16]: > 500 nM
< 100 nM	< 100 nM	< 100 nM	< 100 nM					NS(=O)(=O)c1cccc(C(=O)N2CCN(c3ncnc4[nH]ccc34)CC23CC3)c1 [Example 371, 3-[7-(7H-Pyrrolo[2,3-d]pyrimidin-4-yl)-4,7-diaza-spiro[2.5]octane-4-carbonyl]-benzenesulfonamide]	
> 500 nM	> 500 nM	> 500 nM	> 500 nM					N#Cc1ccc(C(=O)N2CCN(c3ncnc4[nH]cc(Cl)c34)CC23CC3)cc1 [Example 315, 4-[7-(5-Chloro-7H-pyrrolo[2,3-d]pyrimidin-4-yl)-4,7-diaza-spiro[2.5]octane-4-carbonyl]-benzonitrile]	
< 100 nM	< 100 nM	100 to 500 nM	100 to 500 nM					Nc1nc(N2CCN(C(=O)c3cnc4ccccc4n3)C3(CC3)C2)c2cc[nH]c2n1 [Example 305, [7-(2-Amino-7H-pyrrolo[2,3-d]pyrimidin-4-yl)-4,7-diaza-spiro[2.5]oct-4-yl]-quinoxalin-2-yl-methanone]	
100 to 500 nM	< 100 nM	100 to 500 nM	> 500 nM					N#CC1(C(=O)N2CCN(c3nc(N)nc4[nH]ccc34)CC23CC3)CC1 [Example 308, 1-[7-(2-Amino-7H-pyrrolo[2,3-d]pyrimidin-4-yl)-4,7-diaza-spiro[2.5]octane-4-carbonyl]-cyclopropanecarbonitrile]	
				100 to 500 nM	100 to 500 nM	> 500 nM	> 500 nM	Cc1cnc(C(=O)N2[C@@H]3CC[C@H]2CN(c2ncnc4[nH]ccc24)C3)cn1 [Example 74, (5-Methyl-pyrazin-2-yl)-[3-(7H-pyrrolo[2,3-d]pyrimidin-4-yl)-3,8-diaza-bicyclo[3.2.1]oct-8-yl]-methanone]	
> 500 nM	> 500 nM	> 500 nM	> 500 nM					N#Cc1ccc(C(=O)N2C[C@@H]3C[C@H]2CN3c2ncnc3[nH]ccc23)cc1 [Example 258, 4-[5-(7H-Pyrrolo[2,3-d]pyrimidin-4-yl)-2,5-diaza-bicyclo[2.2.1]heptane-2-carbonyl]-benzonitrile]	
				100 to 500 nM	< 100 nM	100 to 500 nM	> 500 nM	O=C(C1CCCO1)N1CCN(c2ncnc3[nH]ccc23)CC12CC2 (stereo not drawn) [Example 22, [7-(7H-Pyrrolo[2,3-d]pyrimidin-4-yl)-4,7-diazaspiro[2.5]oct-4-yl]-(tetrahydrofuran-2-yl)methanone]	
< 100 nM	< 100 nM	< 100 nM	< 100 nM					NS(=O)(=O)c1csc(C(=O)N2CCN(c3ncnc4[nH]ccc34)CC23CC3)c1 [Example 372, 5-[7-(7H-Pyrrolo[2,3-d]pyrimidin-4-yl)-4,7-diaza-spiro[2.5]octane-4-carbonyl]-thiophene-3-sulfonic acid amide]	
				> 500 nM	> 500 nM	> 500 nM	> 500 nM	COC(=O)c1cc2c(N3CCN(C(=O)Cc4cccc(C#N)c4)C4(CC4)C3)ncnc2[nH]1 [Example 123, 4-{4-[2-(3-Cyano-phenyl)-acetyl]-4,7-diaza-spiro[2.5]oct-7-yl}-7H-pyrrolo[2,3-d]pyrimidine-6-carboxylic acid methyl ester]	
				100 to 500 nM	100 to 500 nM	> 500 nM	> 500 nM	CCOC(=O)NC(=S)N1[C@@H]2CC[C@H]1CN(c1ncnc3[nH]ccc13)C2 [Example 29, [3-(7H-Pyrrolo[2,3-d]pyrimidin-4-yl)-3,8-diazabicyclo[3.2.1]octane-8-carbothioyl]carbamic acid ethyl ester]	
